In patent US12428370B2, “Haloallylamine dual amine oxidase inhibitors” (Syntara Limited, priority 2020, dated 2025):
Structures can show the parent of a compound that is named as a salt.

Columns and labels:
[1] = tested on: Hooded Wistar rat model of dopaminergic neurodegeneration; test: Intranigral LPS-induced neuroinflammatory model, dopaminergic neuron counts; type: in vivo, Hooded Wistar male rats; details: unilateral LPS, 2 mg/kg i.p. daily for 2 weeks, t-test p<0.05, FIG. 5
Experimental: Hooded Wistar male rats weighing between 300-400 g were obtained from Adelaide Laboratory Animal Services.
Unilateral infusions: Rats receiving a unilateral injection of 2 μL of 1.5 mg/mL solution of LPS (O55:B5, Sigma) in the substantia nigra were anaesthetized with isofluorane and positioned in a stereotaxic frame. For all rats, holes were drilled into the skull above the appropriate targeted structures according to the following coordinates: −5.3 mm posterior; ±2.0 mm lateral; −8.0 mm ventral to bregma.
Immunohistochemical procedures: two weeks after the lesion, the rats were transcardially perfused with PBS followed by PFA 4%. Brains were post-fixed in PFA 4%, and coronal sections of 30 μm containing the substantia nigra were collected and washed 3×0.01 M phosphate-buffered saline at pH 7.4. (PBS) for 10 minutes. Dopaminergic neurons were stained with anti-tyrosine hydroxylase (TH) antibody 1:10000 and visualized using nickel-enhanced 3,3′-diaminobenzidine (DAB) and counted manually.

[2] = Pharmacokinetic study in Wistar rats, oral gavage; type: in vivo; details: oral gavage at 3 mg/kg, plasma, FIG. 1
Experimental: Pharmacokinetic (PK) studies were carried out at Sundia MediTech Co. Ltd., Shanghai. […] At various times between 15 minutes and 8 hours, blood samples were collected by tail vein bleed. Plasma was analyzed by high performance liquid chromatography-tandem mass spectrometry using a Shimadzu LC30AD HPLC and a QTRAP 5500 mass spectrometer. The time course and basic PK parameters thus obtained are outlined in FIG. 1.

[3] = molecular target: T1, recombinant human MAO-A (Homo sapiens, UniProt P21397); test: Inhibition of human recombinant MAO-A; type: biochemical; details: incubation time of 2 hours, tyramine 100 μM
T1 construct: purchased Sigma Aldrich
T1 sequence (P21397 1-527): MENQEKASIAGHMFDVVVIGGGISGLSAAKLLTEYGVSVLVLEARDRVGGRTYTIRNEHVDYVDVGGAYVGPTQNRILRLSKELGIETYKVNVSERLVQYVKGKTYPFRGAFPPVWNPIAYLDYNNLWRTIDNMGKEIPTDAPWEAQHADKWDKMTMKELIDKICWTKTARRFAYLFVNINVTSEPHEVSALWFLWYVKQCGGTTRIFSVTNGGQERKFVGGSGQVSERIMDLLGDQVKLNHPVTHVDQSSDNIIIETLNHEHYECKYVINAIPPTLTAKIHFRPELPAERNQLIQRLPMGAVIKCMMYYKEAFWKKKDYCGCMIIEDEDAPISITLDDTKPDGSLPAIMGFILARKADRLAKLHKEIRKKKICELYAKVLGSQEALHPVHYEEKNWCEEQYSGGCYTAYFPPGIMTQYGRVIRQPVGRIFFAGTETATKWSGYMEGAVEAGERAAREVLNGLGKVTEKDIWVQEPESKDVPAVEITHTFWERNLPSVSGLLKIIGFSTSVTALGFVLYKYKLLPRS
Experimental: Method to Determine the Ability of Compounds of Formula I to Inhibit Human Recombinant MAO-A
The selectivity of the compounds of this invention was tested by determining their ability to inhibit MAO-A activity in vitro, using recombinant human MAO-A (0.003 mg/mL; Sigma Aldrich). The assay was performed in a similar way as for human SSAO/VAP-1 (EXAMPLE 9) except, the substrate tyramine was used at 100 μM in place of benzylamine and the assay was run after an incubation time of 2 hours.

[4] = tested on: BALB/c mice, carrageenan air pouch; test: Carrageenan air pouch model; type: in vivo; details: single oral application 1 h before carrageenan, read 4 h after, vs carrageenan-treated mice, FIG. 4
Experimental: On day 0, BALB/c mice were shaved at the nape of the neck, anesthetized and 6 mL air sterile (0.2 μm, Sartorius, Cat. 16532) was injected subcutaneously using a 23G×1½ inch needle fixed to a 6 mL syringe. The injection site was sealed with flexible collodion (Macron, Cat. 4580-02). On day 3 a further 3 mL of sterile air was injected into the neck.
3% λ-carrageenan was prepared by dissolving 1.8 g λ-carrageenan (FLUKA, Cat. 22049, lot 1408463) in 60 mL hot de-ionized water. Once dissolved, the solution was cooled to room temperature and the volume made up to 60 mL with de-ionized water.
On day six, PXS-5131 in PBS (vehicle) or PBS only were administered by oral gavage to the mice. One hour after administration, mice were injected with 1 mL 3% λ-carrageenan, using a 23G×2 inch needle fitted to a 1 mL syringe, directly into the air pouch. Sham animals were administered 1 mL de-ionized water instead of λ-carrageenan solution.
Four hours after carrageenan/de-ionized water injection, the mice were anesthetized and 3 mL 10 U/mL heparinized saline was injected into the air pouch. The air pouch was gently massaged, the contents immediately removed using an 18G×1 inch needle fitted to a 5 mL syringe, and the exudate volume recorded. An aliquot of the exudate taken for total white blood cell counting; a second aliquot of the exudate was taken for differential white blood cell counts.

[5] = Stability of Compound 1 in a grape syrup formulation; type: physicochemical
Experimental: Methylparahydroxybenzoate (126.2 mg), propylparahydroxybenzoate (20.0 mg), sodium phosphate monobasic (1%, 1.0 g) and saccharose (16.56 g) were dissolved in 100 mL purified water, vortexed for 10 min, followed by sonication for 30 min, and then filtered through a 0.45 μm filter. pH adjusted to pH 5 using 0.5 M NaOH. To 50 mL of the resultant solution was added grape flavor (LorAnnOils, 0180-0800; 1%, 0.5 mL), followed by 50 mg of Compound 1 to attain a final concentration of 1 mg/mL. Split into two 25 mL portions, one frozen, and one left at room temperature (rt) in a sealed falcon tube.

| SMILES | loss of dopaminergic neurons (TH-positive) in substantia nigra [1] | pharmacokinetic profile [2] | IC50 [3] | exudate volume in the air pouch [4] | neutrophil count in the air pouch [4] | degradation in grape syrup formulation ([5]; 91 days at room temperature) | Purity of Compound 1 stored at rt for 91 days as measured by HPLC/area under the curve at 265 nm ([5]; grape syrup formulation 1 mg/mL, pH 5, rt, 91 days) | Purity of Compound 1 stored at −20° C. for 91 days as measured by HPLC/area under the curve at 265 nm ([5]; grape syrup formulation 1 mg/mL, pH 5, −20° C., 91 days) |
| --- | --- | --- | --- | --- | --- | --- | --- | --- |
| NC/C(=C\F)C1Cc2ccccc2O1 (single isomer, unassigned; (-)) [PXS-5131, (−)-(E)-2-(2,3-Dihydrobenzofuran-2-Yl)-3-Fluoroprop-2-En-1-Amine Hydrochloride] | significant protection from loss | inferior to Compound 1 | 0.3 to 3 µM | decrease | decrease |  |  |  |
| N#Cc1ccc(OC/C(=C/F)CN)cc1 [Compound 1, (E)-4-((2-(aminomethyl)-3-fluoroallyl)oxy) benzonitrile] |  |  | > 30 µM |  |  | no discernible degradation | 99.785% | 99.781% |
